# Experimental data reported in US20230136600A1, “Method and device for screening antigen epitope polypeptide” (priority 2020, published 2023).
# Experiments:
# [1] = tested on: novel coronavirus (live coronavirus), vero cells; assay: In-vitro live virus neutralization experiment with serum of immunized mice (CPE method); assay type: in vivo, SARS-CoV-2; details: Embodiment I: single peptide 100 μg + MF59 at Day 0, 14, 28, Balb/c mice, serum Day 35
# Balb/c mice = assay: Polypeptide chip-based vaccine immunogenicity scoring system; assay type: in vivo; set-up: key to A2: whether the 95 percentile of the last sampling is increased compared with the end point: Y = rise; N = no rise; details: for A: 95 percentile grouping number score / B: Mouse performance score: total score = 5
# [2] = Embodiment III, polypeptide-KLH
# [3] = Embodiment III, polypeptide-KLH, Mix1-10
# [4] = Embodiment III, polypeptide-KLH, value of the whole mix
# [5] = adjuvant AddaVax, 7 peptides co-immunized in mice
# [6] = adjuvant Adju-Phos, 7 peptides co-immunized in mice
# [7] = adjuvant Alhydrogel, 7 peptides co-immunized in mice
# [8] = adjuvant Imjet Alumn, 7 peptides co-immunized in mice
# [9] = adjuvant MA103A, 7 peptides co-immunized in mice
# [10] = adjuvant MA103B, 7 peptides co-immunized in mice
sequence,measurement,setting,value
VYDPLQPEL (SARS-CoV-2) [SEQ ID NO:34],Neutralizing antibody positive rate (%),[1],20%
same,A2: whether the 95 percentile of the last sampling is increased compared with the end point,"Balb/c mice; Embodiment II, Combination 1",N
same,B1: D 0-D 14 95 percentile rise in the number of mice,"Balb/c mice; Embodiment II, Combination 1",5
same,B2: D 0-D 21 95 percentile rise in the number of mice,"Balb/c mice; Embodiment II, Combination 1",0
same,B3: D 14-D 21 95 percentile rise in the number of mice,"Balb/c mice; Embodiment II, Combination 1",0
same,B4: D 21-D 28 95 percentile rise in the number of mice,"Balb/c mice; Embodiment II, Combination 1",1
same,Total single peptide,"Balb/c mice; Embodiment II, Combination 1, A*3 + B*2 + C*1",18.9
same,A: 95 percentile grouping number score,"Balb/c mice; Embodiment II, Combination 1",5
same,B: Mouse performance score,"Balb/c mice; Embodiment II, Combination 1",1.7
same,A1: difference between a highest median and a D 0 median (95 percentile),"Balb/c mice; Embodiment II, mice immunized with Combination 1",0.21
same,B1: D 0-D 14 95 percentile rise in the number of mice,Balb/c mice; [2],3
same,B2: D 0-D 21 95 percentile rise in the number of mice,Balb/c mice; [2],3
same,B3: D 14-D 21 95 percentile rise in the number of mice,Balb/c mice; [2],1
same,B4: D 21-D 28 95 percentile rise in the number of mice,Balb/c mice; [2],0
same,A1: difference between a highest median and a D 0 median (95 percentile),Balb/c mice; [3],0.08
same,A2: whether the 95 percentile of the last sampling is increased compared with the end point,Balb/c mice; [3],N
same,Total single peptide,"Balb/c mice; Embodiment III, polypeptide-KLH, A*3 + B*2 + C*1",13.4
same,A: 95 percentile grouping number score,Balb/c mice; [2],3
same,B: Mouse performance score,Balb/c mice; [2],1.7
same,C1: #A timing-sequence response peptide fragment set,Balb/c mice; [4],823
same,C2: #B vaccine specificity peptide fragment set,Balb/c mice; [4],398
same,C3: Intersection of A and B,Balb/c mice; [4],7
same,C4: Percentage of the intersection in set B,Balb/c mice; [4],1.759
same,C: Timing-sequence response and specificity score,Balb/c mice; [4],1
same,1) 95 percentile grouping number A,Balb/c mice; [5],3.5
same,1) 95 percentile grouping number A1,Balb/c mice; [5],0.05
same,2) Mouse performance B,Balb/c mice; [5],2.4
same,2) Mouse performance B1,Balb/c mice; [5],4
same,2) Mouse performance B2,Balb/c mice; [5],4
same,2) Mouse performance B3,Balb/c mice; [5],1
same,3) Timing-sequence response and specificity C,Balb/c mice; [5],0
same,3) Timing-sequence response and specificity C1,Balb/c mice; [5],237
same,3) Timing-sequence response and specificity C2,Balb/c mice; [5],1244
same,3) Timing-sequence response and specificity C3,Balb/c mice; [5],0
same,3) Timing-sequence response and specificity C4,Balb/c mice; [5],0.000
same,Total single peptide,Balb/c mice; [5],15.3
same,1) 95 percentile grouping number A,Balb/c mice; [6],5
same,1) 95 percentile grouping number A1,Balb/c mice; [6],0.08
same,2) Mouse performance B,Balb/c mice; [6],2.5
same,2) Mouse performance B1,Balb/c mice; [6],3
same,2) Mouse performance B2,Balb/c mice; [6],4
same,2) Mouse performance B3,Balb/c mice; [6],2
same,3) Timing-sequence response and specificity C,Balb/c mice; [6],0
same,3) Timing-sequence response and specificity C1,Balb/c mice; [6],203
same,3) Timing-sequence response and specificity C2,Balb/c mice; [6],1244
same,3) Timing-sequence response and specificity C3,Balb/c mice; [6],0
same,3) Timing-sequence response and specificity C4,Balb/c mice; [6],0.000
same,Total single peptide,Balb/c mice; [6],20
same,1) 95 percentile grouping number A,Balb/c mice; [7],5
same,1) 95 percentile grouping number A1,Balb/c mice; [7],0.06
same,2) Mouse performance B,Balb/c mice; [7],2.6
same,2) Mouse performance B1,Balb/c mice; [7],4
same,2) Mouse performance B2,Balb/c mice; [7],3
same,2) Mouse performance B3,Balb/c mice; [7],2
same,3) Timing-sequence response and specificity C,Balb/c mice; [7],1
same,3) Timing-sequence response and specificity C1,Balb/c mice; [7],123
same,3) Timing-sequence response and specificity C2,Balb/c mice; [7],1244
same,3) Timing-sequence response and specificity C3,Balb/c mice; [7],2
same,3) Timing-sequence response and specificity C4,Balb/c mice; [7],0.161
same,Total single peptide,Balb/c mice; [7],20.7
same,1) 95 percentile grouping number A,Balb/c mice; [8],5
same,1) 95 percentile grouping number A1,Balb/c mice; [8],0.11
same,2) Mouse performance B,Balb/c mice; [8],2.1
same,2) Mouse performance B1,Balb/c mice; [8],5
same,2) Mouse performance B2,Balb/c mice; [8],3
same,2) Mouse performance B3,Balb/c mice; [8],0
same,3) Timing-sequence response and specificity C,Balb/c mice; [8],1
same,3) Timing-sequence response and specificity C1,Balb/c mice; [8],100
same,3) Timing-sequence response and specificity C2,Balb/c mice; [8],1244
same,3) Timing-sequence response and specificity C3,Balb/c mice; [8],3
same,3) Timing-sequence response and specificity C4,Balb/c mice; [8],0.241
same,Total single peptide,Balb/c mice; [8],19.7
same,1) 95 percentile grouping number A,Balb/c mice; [9],5
same,1) 95 percentile grouping number A1,Balb/c mice; [9],0.115
same,2) Mouse performance B,Balb/c mice; [9],2.5
same,2) Mouse performance B1,Balb/c mice; [9],5
same,2) Mouse performance B2,Balb/c mice; [9],5
same,2) Mouse performance B3,Balb/c mice; [9],0
same,3) Timing-sequence response and specificity C,Balb/c mice; [9],1
same,3) Timing-sequence response and specificity C1,Balb/c mice; [9],260
same,3) Timing-sequence response and specificity C2,Balb/c mice; [9],1244
same,3) Timing-sequence response and specificity C3,Balb/c mice; [9],3
same,3) Timing-sequence response and specificity C4,Balb/c mice; [9],0.241
same,Total single peptide,Balb/c mice; [9],20.5
same,1) 95 percentile grouping number A,Balb/c mice; [10],5
same,1) 95 percentile grouping number A1,Balb/c mice; [10],0.095
same,2) Mouse performance B,Balb/c mice; [10],4.2
same,2) Mouse performance B1,Balb/c mice; [10],4
same,2) Mouse performance B2,Balb/c mice; [10],5
same,2) Mouse performance B3,Balb/c mice; [10],5
same,3) Timing-sequence response and specificity C,Balb/c mice; [10],0
same,3) Timing-sequence response and specificity C1,Balb/c mice; [10],153
same,3) Timing-sequence response and specificity C2,Balb/c mice; [10],1244
same,3) Timing-sequence response and specificity C3,Balb/c mice; [10],0
same,3) Timing-sequence response and specificity C4,Balb/c mice; [10],0.000
same,Total single peptide,Balb/c mice; [10],23.4
